This note sets out measurements from patent US20240109900A1, “AZABICYCLIC SHP2 INHIBITORS” (IRBM S.P.A., priority 2021, published 2024).

Assay [1] addresses SHP-2 enzyme (Met1-Leu525) (Homo sapiens (Human), UniProt Q06124). The assay can be described thus: SHP2 inhibition enzymatic assay. Type of assay: biochemical. To be noted: 0.5 nM SHP-2 activated by 500 nM IRS1 peptide, 75 μM DiFMUP substrate; read-out: SHP2wt-IC50. An outline of the steps:
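Compounds were preincubated 30 min with 0.5 nM SHP-2 (Met1-Leu525) plus 500 nM IRS1 activating peptide (pH 7.2 HEPES, 5 mM DTT), then 75 μM DiFMUP substrate reacted 30 min at room temperature. After bpV quench, DiFMUP fluorescence gave % inhibition; four-parameter logistic fit yielded IC50.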

Assay [2] deals with ERK phosphorylation in KYSE-520 cells. The assay can be described thus: Phospho-ERK cellular assay. Type of assay: cell-based. The settings on record: KYSE-520 cells, 2 h at 37° C., phospho-ERK1/2 (Thr202/Tyr204) TR-FRET, read-out: PERK IC50. An outline of the steps:
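TR-FRET read-out of ERK1/2 Thr202/Tyr204 phosphorylation was taken after overnight antibody incubation at room temperature. Before that, KYSE-520 cells were treated 2 h at 37 °C with compound dilutions and lysed 30 min. Percent inhibition relative to vehicle and cell-free wells was fitted four-parametrically to give IC50.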
On the technique in general: In TR-FRET formats the signal depends on donor and acceptor labels being close together.

pIC50: −log10 of the molar value. Read-outs that look alike come from different tables or passages of the source.

Sequence of SHP-2 enzyme (Met1-Leu525) (Q06124 1-525): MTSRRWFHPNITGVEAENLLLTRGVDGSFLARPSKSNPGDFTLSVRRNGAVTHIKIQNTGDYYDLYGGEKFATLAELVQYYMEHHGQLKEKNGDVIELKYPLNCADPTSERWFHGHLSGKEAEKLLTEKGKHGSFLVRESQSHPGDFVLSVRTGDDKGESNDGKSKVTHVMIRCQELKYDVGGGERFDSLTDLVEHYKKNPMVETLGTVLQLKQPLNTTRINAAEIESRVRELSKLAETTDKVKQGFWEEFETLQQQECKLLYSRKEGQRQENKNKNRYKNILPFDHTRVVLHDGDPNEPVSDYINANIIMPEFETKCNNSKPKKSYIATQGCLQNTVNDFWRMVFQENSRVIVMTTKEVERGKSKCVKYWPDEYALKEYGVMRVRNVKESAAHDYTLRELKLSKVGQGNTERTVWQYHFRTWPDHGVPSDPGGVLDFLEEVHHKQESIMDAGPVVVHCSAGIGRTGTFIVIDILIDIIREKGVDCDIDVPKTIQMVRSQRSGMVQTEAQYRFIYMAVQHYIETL

As usually defined, the pIC50 is the negative decadic logarithm of the IC50, by convention in mol/L. As to `NC[C@]1(c2ccccc2F)[C@@H]2CCN(c3cnc4c(-c5ccnc(F)c5Cl)n[nH]c4n3)C[C@@H]21` [Example 509, ((1S,6R,7R)-3-(3-(3-chloro-2-fluoropyridin-4-yl)-1H-pyrazolo[3,4-b]pyrazin-6-yl)-7-(2-fluorophenyl)-3-azabicyclo[4.1.0]heptan-7-yl)methanamine], the pIC50 was greater than 6.30 in assay [1] and greater than 6.00 in assay [2] (Homo sapiens, KYSE-520, 2 h).
`NC[C@]1(c2ccccc2)[C@@H]2CN(c3cnc4c(-c5ccc(F)c6ncccc56)n[nH]c4n3)C[C@@H]21` [Example 510, ((1R,5S,6s)-3-(3-(8-fluoroquinolin-5-yl)-1H-pyrazolo[3,4-b]pyrazin-6-yl)-6-phenyl-3-azabicyclo[3.1.0]hexan-6-yl)methanamine]: the negative logarithm of the IC50 (pIC50) in assay [1] was greater than 6.30; in assay [2] (Homo sapiens, KYSE-520, 2 h) it was greater than 6.00.
As to `Cn1ccc([C@@]2(CN)[C@@H]3CN(c4cnc5c(-c6ccc7nccnc7c6Cl)n[nH]c5n4)C[C@@H]32)n1` [Example 511, ((1R,5S,6r)-3-(3-(5-chloroquinoxalin-6-yl)-1H-pyrazolo[3,4-b]pyrazin-6-yl)-6-(1-methyl-1H-pyrazol-3-yl)-3-azabicyclo[3.1.0]hexan-6-yl)methanamine], the pIC50 in assay [1] was greater than 6.30; in assay [2] (Homo sapiens, KYSE-520, 2 h) it was greater than 6.00.
For `Cc1csc([C@@]2(CN)[C@@H]3CN(c4cnc5c(-c6ccc(C(N)=O)cc6Cl)n[nH]c5n4)C[C@@H]32)n1` [Example 512], the negative-log IC50 (pIC50) in assay [1] was greater than 6.30; in assay [2], greater than 6.00.
With `Cc1nc([C@@]2(CN)[C@@H]3CN(c4cnc5c(-c6ccc7nn(C)cc7c6Cl)n[nH]c5n4)C[C@@H]32)co1` [Example 514, ((1R,5S,6r)-3-(3-(4-chloro-2-methyl-2H-indazol-5-yl)-1H-pyrazolo[3,4-b]pyrazin-6-yl)-6-(2-methyloxazol-4-yl)-3-azabicyclo[3.1.0]hexan-6-yl)methanamine], the negative logarithm of the IC50 (pIC50) was greater than 6.30 in assay [1] and greater than 6.00 in assay [2] (Homo sapiens, KYSE-520, 2 h).
As to `Cc1csc([C@@]2(CN)[C@@H]3CN(c4cnc5nc(Sc6ccnc(-n7cccn7)c6Cl)ccc5n4)C[C@@H]32)n1` [Example 515, ((1R,5S,6r)-3-(6-((3-chloro-2-(1H-pyrazol-1-yl)pyridin-4-yl)thio)pyrido[2,3-b]pyrazin-2-yl)-6-(4-methylthiazol-2-yl)-3-azabicyclo[3.1.0]hexan-6-yl)methanamine], the negative-log IC50 (pIC50) is greater than 6.30 in assay [1] and greater than 6.00 in assay [2] (Homo sapiens, KYSE-520, 2 h).
For `Cc1csc([C@@]2(CN)[C@@H]3CN(c4cnc5c(-c6ccnc(N)c6Cl)n[nH]c5n4)C[C@@H]32)n1` [Example 517], the pIC50 in assay [1] is greater than 6.30; in assay [2], greater than 6.00.
For `Cc1csc([C@@]2(CN)[C@@H]3CN(c4cnc5c(-c6ccc7nn(CC(F)(F)F)cc7c6Cl)n[nH]c5n4)C[C@@H]32)n1` [Example 518] the same measures were greater than 6.30 and greater than 6.00.
As for `Cc1csc([C@@]2(CN)[C@@H]3CN(c4cnc5c(-c6ccncc6Cl)n[nH]c5n4)C[C@@H]32)n1` [Example 519], the values for the pIC50 in assay [1] and in assay [2] were greater than 6.30 and greater than 6.00, respectively.
Regarding `CS(=O)(=O)c1ccc(-c2n[nH]c3nc(N4CC[C@@H]5[C@H](C4)[C@@]5(CN)c4ccccc4F)cnc23)c2cccnc12` [Example 521, ((1S,6R,7R)-7-(2-fluorophenyl)-3-(3-(8-(methylsulfonyl)quinolin-5-yl)-1H-pyrazolo[3,4-b]pyrazin-6-yl)-3-azabicyclo[4.1.0]heptan-7-yl)methanamine], the pIC50 in assay [1] is greater than 6.30; in assay [2] (Homo sapiens, KYSE-520, 2 h) it was greater than 6.00.
In the case of `NC[C@]1(c2ccccc2F)[C@@H]2CCN(c3cnc4c(-c5ccnc(-n6cccc6)c5Cl)n[nH]c4n3)C[C@@H]21` [Example 522, ((1S,6R,7R)-3-(3-(3-chloro-2-(1H-pyrrol-1-yl)pyridin-4-yl)-1H-pyrazolo[3,4-b]pyrazin-6-yl)-7-(2-fluorophenyl)-3-azabicyclo[4.1.0]heptan-7-yl)methanamine], the pIC50 in assay [1] was greater than 6.30; in assay [2] (Homo sapiens, KYSE-520, 2 h), greater than 6.00.
For the compound `NC[C@]1(c2ccccc2F)[C@@H]2CCN(c3cnc(Sc4ccc5nccnc5c4Cl)c(N)n3)C[C@@H]21` [Example 523, 6-((1S,6R,7R)-7-(aminomethyl)-7-(2-fluorophenyl)-3-azabicyclo[4.1.0]heptan-3-yl)-3-((5-chloroquinoxalin-6-yl)thio)pyrazin-2-amine], the pIC50 in assay [1] was greater than 6.30; in assay [2] (Homo sapiens, KYSE-520, 2 h) it was greater than 6.00.
With `NC[C@]1(c2ccccc2F)[C@@H]2CCN(c3cnc(Sc4ccnc5ccccc45)c(N)n3)C[C@@H]21` [Example 524, 6-((1S,6R,7R)-7-(aminomethyl)-7-(2-fluorophenyl)-3-azabicyclo[4.1.0]heptan-3-yl)-3-(quinolin-4-ylthio)pyrazin-2-amine], the pIC50 was greater than 6.30 in assay [1] and less than 5.30 in assay [2] (Homo sapiens, KYSE-520, 2 h).
With `NC[C@]1(c2ccccc2F)[C@@H]2CCN(c3cnc(Sc4ccc(C(N)=O)c5ncccc45)c(N)n3)C[C@@H]21` [Example 525, 5-((3-amino-5-((1S,6R,7R)-7-(aminomethyl)-7-(2-fluorophenyl)-3-azabicyclo[4.1.0]heptan-3-yl)pyrazin-2-yl)thio)quinoline-8-carboxamide], the pIC50 is greater than 6.30 in assay [1] and less than 5.30 in assay [2] (Homo sapiens, KYSE-520, 2 h).
Turning to `Cn1cnc2ccc(-c3ccc4nc(N5CC[C@@H]6[C@H](C5)[C@@]6(CN)c5cc(F)ccc5F)cnc4n3)cc21` [Example 527, ((1S,6R,7R)-7-(2,5-difluorophenyl)-3-(6-(1-methyl-1H-benzo[d]imidazol-6-yl)pyrido[2,3-b]pyrazin-2-yl)-3-azabicyclo[4.1.0]heptan-7-yl)methanamine], the pIC50 in assay [1] is greater than 6.30; in assay [2] (Homo sapiens, KYSE-520, 2 h) it was 5.30 to 6.00.
On to `Cc1csc([C@@]2(CN)[C@@H]3CN(c4cnc5c(-c6ccc7nn(C8CC8)cc7c6Cl)n[nH]c5n4)C[C@@H]32)n1` [Example 528], for which the pIC50 in assay [1] was greater than 6.30; in assay [2], greater than 6.00.
Take `Cc1nccc(-c2ccc3nc(N4CC[C@@H]5[C@H](C4)[C@@]5(CN)c4ccccc4F)cnc3n2)c1F` [Example 529]: the negative-log IC50 (pIC50) in assay [1] is greater than 6.30; in assay [2] (Homo sapiens, KYSE-520, 2 h) it was greater than 6.00.
`NC[C@]1(c2ccccc2F)[C@@H]2CCN(c3cnc4nc(-c5ccnc(-n6cccn6)c5)ccc4n3)C[C@@H]21` [Example 530, ((1S,6R,7R)-3-(6-(2-(1H-pyrazol-1-yl)pyridin-4-yl)pyrido[2,3-b]pyrazin-2-yl)-7-(2-fluorophenyl)-3-azabicyclo[4.1.0]heptan-7-yl)methanamine]: the pIC50 in assay [1] is greater than 6.30; in assay [2] (Homo sapiens, KYSE-520, 2 h), less than 5.30.
